Measurements as given in the OPERA property sets (Mansouri et al. 2018).

Conditions: for log10 BCF / log10 biotransformation half-life (days): fish

| SMILES | boiling point | melting point | further results |
| --- | --- | --- | --- |
| C=CCc1ccc(O)cc1 | 238 °C | 15.8 °C |  |
| CC(C)(O)CCC(C)(C)O | 214 °C | 92 °C |  |
| O=C(Cl)c1ccccc1 | 197 °C | -1 °C | log10 vapour pressure (mmHg): -0.155 |
| CCCCCCOC(=O)CCCC | 226 °C | -63.1 °C |  |
| O=Cc1cc2c(cc1[N+](=O)[O-])OCO2 |  | 93.5 °C |  |
| Cc1cc(Cl)cc2c1SC(=C1Sc3c(C)cc(Cl)cc3C1=O)C2=O |  |  | log10 vapour pressure (mmHg): -9.52 |
| COS(=O)(=O)Cl | 134 °C | -70 °C |  |
| C=CCC1(c2ccccc2)C(=O)NC(=O)NC1=O |  | 156 °C |  |
| c1ccc(C2=NNCC2)cc1 |  | 45.8 °C |  |
| Clc1ccc(Cl)c(Cl)c1Cl | 254 °C | 47.5 °C | log10 Henry constant (atm·m³/mol): -3.12; log10 Koa: 5.64; log10 Koc (L/kg): 3.84; log10 vapour pressure (mmHg): -1.41; ready biodegradability: not readily biodegradable; log10 BCF: 3.38; log10 biotransformation half-life (days): 0.69 |
| Cc1c(O)cccc1O | 264 °C | 120 °C | ready biodegradability: not readily biodegradable |
| N#Cc1cccc(Cl)c1 |  | 41 °C |  |
| C1=CCC2CC2C1 (stereo not given) | 125 °C |  | log10 vapour pressure (mmHg): 1.36 |
| Clc1ccc(Cl)c(-c2ccccc2)c1 |  |  | log10 Henry constant (atm·m³/mol): -3.55; log10 vapour pressure (mmHg): -2.86; log10 BCF: 3.98; log10 biotransformation half-life (days): 2.38 |
| S=C=Nc1ccc(Br)cc1 |  | 60.5 °C |  |
| CCc1ccc(CC)cc1 | 184 °C | -42.8 °C | log10 vapour pressure (mmHg): 0.0253; ready biodegradability: not readily biodegradable; log10 BCF: 2.68; log10 biotransformation half-life (days): -0.01 |
| CC(C)CCC[C@H](C)O | 174 °C | -105 °C |  |
| Brc1ccc(Oc2ccc(Br)c(Br)c2Br)c(Br)c1 |  |  | log10 Koa: 11.7; log10 vapour pressure (mmHg): -8.14; logP: 7.37; log10 biotransformation half-life (days): 1.34 |
| CCCOP(OCCC)OCCC | 206 °C |  |  |
| O=[N+]([O-])c1ccc2cccnc2c1 |  | 132 °C |  |
| Oc1ccc(N=Nc2ccc(N=Nc3ccccc3)c3ccccc23)cc1 |  | 210 °C |  |
| Cl[Si](Cl)(Cl)CCc1ccccc1 | 242 °C |  |  |
| CC1CC1C (stereo not given) | 32.6 °C | -145 °C |  |

| SMILES | boiling point | melting point | further results |
| --- | --- | --- | --- |
| C/C(=N/NC(=O)c1ccncc1)c1ccco1 |  | 202 °C |  |
| O=C(C(Cl)Cl)C(Cl)(Cl)Cl |  | 2.1 °C |  |
| N#CSC#N |  | 63.5 °C |  |
| CO[C@H]1C=CC2=CCN3CCC4=C(CC(=O)OC4)[C@]23C1 |  | 99.5 °C |  |
| ClC(Cl)C(Cl)C(Cl)Cl | 199 °C | -10 °C | log10 vapour pressure (mmHg): -0.0278; ready biodegradability: not readily biodegradable |
| O=c1c2ccccc2sc2ccccc12 | 373 °C | 209 °C |  |
| CCCCCCCCC(=O)OCCCCC |  | -27 °C |  |
| CC12CCC(C(Cl)C1=O)C2(C)C (stereo not given) |  | 106 °C |  |
| O=C1Nc2ccc(Cl)cc2C(c2ccccc2Cl)=NC1O (stereo not given) |  | 167 °C |  |
| OCC(Cl)(Cl)Cl | 152 °C | 19 °C |  |
| O=C1CCC(N2C(=O)c3ccccc3C2=O)C(=O)N1 (stereo not given) |  | 270 °C |  |
| COC(=O)CC#N | 200 °C | -22.5 °C | log10 vapour pressure (mmHg): -0.86 |
| CCCCCCCCCCCCO | 259 °C | 24 °C | log10 Henry constant (atm·m³/mol): -4.65; log10 Koc (L/kg): 3.52; log10 vapour pressure (mmHg): -3.07; ready biodegradability: readily biodegradable |
| C1CNCCNC1 | 169 °C | 43.5 °C |  |
| Oc1cc(O)c2ccccc2c1 |  | 124 °C |  |
| C[C@]12CC[C@H]3[C@@H](CCC4=CC(=O)CC[C@@]43C)[C@@H]1CC[C@@H]2O |  | 155 °C |  |
| C=C(C)C(=O)OCC | 117 °C |  | log10 vapour pressure (mmHg): 1.31 |
| CN(C)C1=NC(=O)C(c2ccccc2)O1 (stereo not given) |  | 134 °C |  |
| O=C(O)c1ccccc1OP(=O)(O)O |  | 169 °C |  |
| CC(=O)Nc1c(I)c(NC(C)=O)c(I)c(C(=O)[O-])c1I.[Na+] |  | 261 °C |  |
| Brc1ccc2c(c1)Oc1cc(Br)ccc1O2 |  | 145 °C | log10 vapour pressure (mmHg): -5.89 |
| CC(=O)OC(OC(C)=O)c1ccc([N+](=O)[O-])o1 |  | 91 °C |  |
| CCCC(=O)c1cc(O)c(O)cc1O |  | 154 °C |  |

| SMILES | boiling point | melting point | further results |
| --- | --- | --- | --- |
| CC(C)Br | 59.5 °C | -89 °C | log10 vapour pressure (mmHg): 2.34; ready biodegradability: readily biodegradable |
| CC(=O)N[C@@H](CS)C(=O)O |  | 110 °C |  |
| CC(=O)N(CC(C)C(=O)O)c1c(I)cc(I)c(N)c1I (stereo not given) |  | 224 °C |  |
| CN(C)CCC=C1c2ccccc2CCc2ccccc21 |  | 196 °C |  |
| Nc1nc[nH]n1 |  | 159 °C | log10 Koc (L/kg): 1.25; log10 vapour pressure (mmHg): -6.36; ready biodegradability: not readily biodegradable; log10 BCF: 0.49 |
| NC(=O)c1cccs1 |  | 182 °C |  |
| ClCC#CCCl | 166 °C |  |  |
| COc1ccc(CCN2CCC(Nc3nc4ccccc4n3Cc3ccc(F)cc3)CC2)cc1 |  | 149 °C |  |
| Nc1ncnc2[nH]cnc12 |  |  | log10 vapour pressure (mmHg): -10.4 |
| NNS(=O)(=O)c1ccccc1 |  | 102 °C |  |
| CC(=O)COc1ccccc1 | 230 °C |  |  |
| NC[C@H]1CCCO1 | 153 °C |  |  |
| CC(=O)CCCCO | 227 °C |  |  |
| CC(=O)CF | 77 °C |  | log10 vapour pressure (mmHg): 1.8 |
| CCC(Cc1ccccc1)c1ccccc1 (stereo not given) | 290 °C |  |  |
| CC(O)CNCC(C)O (stereo not given) | 250 °C | 44.5 °C | log10 vapour pressure (mmHg): -3.9; ready biodegradability: readily biodegradable |
| N#Cc1ccc(Cl)cc1 | 223 °C | 95 °C |  |
| CCCC1CCCC1 | 131 °C | -117 °C | log10 vapour pressure (mmHg): 1.09 |
| c1ccc(C2OCCCO2)cc1 | 253 °C | 41 °C |  |
| CC(C)(C)c1ccc(C(O)CCCN2CCC(C(O)(c3ccccc3)c3ccccc3)CC2)cc1 (stereo not given) |  | 147 °C |  |
| COCC(=NOCC(=O)OC)c1cc(Oc2ccc(C(F)(F)F)cc2Cl)ccc1[N+](=O)[O-] |  | 58 °C |  |
| CCC(C)c1cccc(C(C)CC)c1O (stereo not given) | 258 °C | -42 °C | ready biodegradability: not readily biodegradable; log10 BCF: 2.39; log10 biotransformation half-life (days): -0.22 |
| CC(C)CCS | 120 °C |  | log10 vapour pressure (mmHg): 1.31 |

| SMILES | boiling point | melting point | further results |
| --- | --- | --- | --- |
| C=CCN(CC=C)C(=O)C(Cl)Cl |  | 5.5 °C | log10 Koc (L/kg): 1.6; log10 vapour pressure (mmHg): -2.22 |
| CCCCCCCl | 135 °C | -94 °C | log10 Henry constant (atm·m³/mol): -1.62; log10 vapour pressure (mmHg): 0.972 |
| CCC(CC)C(C)(C)C | 134 °C | -99.3 °C | log10 vapour pressure (mmHg): 1.05 |
| CN1CCOCC1 | 116 °C |  |  |
| CCNC(=O)C(C)OC(=O)Nc1ccccc1 (stereo not given) |  | 119 °C |  |
| CCCCCCCCCCCCCCCCC#N | 349 °C | 34 °C |  |
| O=[N+]([O-])c1ccc(Cl)c(S(=O)(=O)[O][Na])c1 |  |  | log10 BCF: 0.48 |
| CC1C2Cc3ccc(O)cc3C1(C)CCN2CC1CC1 (stereo not given) |  | 202 °C |  |
| O[C@@H]1[C@@H](O)[C@@H]2OC[C@@H](O2)[C@H]1O |  | 183 °C | log10 vapour pressure (mmHg): -7.12 |
| OCCCCCCCCCCCl |  | 12.5 °C |  |
| CN(C)c1ccc(C(=O)O)cc1 |  | 242 °C |  |
| COc1ccc(C)c(C)c1 | 202 °C |  |  |
| CN(C)CCc1ccc(O)cc1 |  | 118 °C |  |
| CCCCC(CC)CN1C(=O)C2C(C1=O)C1(C(C)C)C=CC2(C)CC1 (stereo not given) |  |  | ready biodegradability: not readily biodegradable; log10 BCF: 2.97; log10 biotransformation half-life (days): 0.31 |
| O=C(O)[C@H]1CCCC[C@H]1C(=O)OC(=O)[C@H]1CCCC[C@H]1C(=O)O |  |  | ready biodegradability: not readily biodegradable |
| CCCSC(=O)N(CCC)CCC |  |  | log10 Koc (L/kg): 2.33; log10 vapour pressure (mmHg): -1.98 |
| C[C@H](CC(=O)O)[C@H]1CC[C@H]2[C@@H]3CC[C@@H]4CCCC[C@]4(C)[C@H]3CC[C@]12C |  | 177 °C |  |
| CC(N)Cc1ccccc1 (stereo not given) |  |  | log10 vapour pressure (mmHg): -0.62 |
| C=CCC1(C(C)C)C(=O)NC(=O)NC1=O |  | 141 °C |  |
| CCCC(C)C(CC)CC (stereo not given) | 165 °C |  |  |
| CNC(=O)Oc1ccc(SC)c(C)c1 |  | 118 °C |  |
| CCN(CC)CCO | 163 °C |  | log10 vapour pressure (mmHg): 0.146; ready biodegradability: not readily biodegradable |
